Results on 20 compounds are retold here after article PMC6222614, “Disubstituted 4-Chloro-3-nitrophenylthiourea Derivatives: Antimicrobial and Cytotoxic Studies” (Molecules : A Journal of Synthetic Chemistry and Natural …, 2018).

One data set relates to CRL7065. Put plainly: Antiproliferative assay (MTT), normal cell line. Type of data set: cell-based, human. The following applies: normal foreskin fibroblasts, concentration reducing cell proliferation by 50%, 96 h. As to the method:
(§1) Cell lines derived from human solid tumors were: Skin melanoma (SK-MEL-28); prostate carcinoma (DU-145). Normal tissues foreskin fibroblasts (CRL-7065) were also used. Cells were seeded at 1 × 10^5 cells/mL in 96 well plates in specific media supplemented with 10% FCS and antibiotics, as above. Cell cultures were then incubated at 37 °C in a humidified, 5% CO2 atmosphere in the absence or presence of serial dilutions of test compounds. Cell viability was determined after 96 h at 37 °C by the MTT method.

A further data set concerns CCRF-CEM. The data set can be described thus: Antiproliferative assay (MTT). Type of data set: cell-based, human. The following applies: concentration reducing cell proliferation by 50%, 96 h, mean of three determinations. As to the method: (§2) Cell lines derived from human hematological tumors were: CD4+ human T-cells containing an integrated HTLV-1 genome (MT-4); CD4+ human acute T-lymphoblastic leukemia (CCRF-CEM); human splenic B-lymphoblastoid cells (WIL-2NS); human acute B-lymphoblastic leukemia (CCRF-SB). Cells were seeded at an initial density of 1 × 10^5 cells/mL in 96 well plates in RPMI-1640 medium supplemented with 10% fetal calf serum (FCS), 100 units/mL penicillin G and 100 μg/mL streptomycin.
as §1

The subject of the next data set is WIL-2NS. The data set can be described thus: Antiproliferative assay (MTT). It is filed as cell-based, human. To be noted: concentration reducing cell proliferation by 50%, 96 h, mean of three determinations. As to the method: as §2, §1
For the next data set, the system named is CCRF-SB. The data set can be described thus: Antiproliferative assay (MTT). Type of data set: cell-based, human. To be noted: concentration reducing cell proliferation by 50%, 96 h, mean of three determinations. How it is done:
as §2, §1

Another data set relates to MT-4. The data set can be described thus: Antiproliferative assay (MTT). It is filed as cell-based, human. The following applies: concentration reducing cell proliferation by 50%, 96 h, mean of three determinations. How it is done:
as §2, §1

The subject of the next data set is DU145. The data set can be described thus: Antiproliferative assay (MTT). Type of data set: cell-based, human. The following applies: prostate carcinoma, concentration reducing cell proliferation by 50%, 96 h. As to the method: as §1
In the next data set the test system is SK-MEL-28. Put plainly: Antiproliferative assay (MTT). The following applies: skin melanoma, concentration reducing cell proliferation by 50%, 96 h. It is filed as cell-based, human. How it is done: as §1
Another data set relates to MT-4 cells. Put plainly: Cytotoxicity against mock-infected MT-4 cells (MTT). It is filed as cell-based, human. To be noted: concentration reducing viability of mock-infected MT-4 cells by 50%, 96 h. How it is done:
(§3) Cell line supporting the multiplication of Human Immunodeficiency Virus type-1 (HIV-1) was the CD4+ human T-cells, derived from human hematological tumors, containing an integrated HTLV-1 genome (MT-4). Cells were purchased from American Type Culture Collection (ATCC). Human Immunodeficiency Virus type-1 (HIV-1) IIIB laboratory strain was obtained from the supernatant of the persistently infected H9/IIIB cells (NIH 1983).
(§4) Exponentially growing MT-4 cells were seeded at an initial density of 1 × 10^5 cells/mL in 96-well plates in RPMI-1640 medium, supplemented with 10% fetal bovine serum (FBS), 100 units/mL penicillin G and 100 μg/mL streptomycin. Cell cultures were then incubated at 37 °C in a humidified, 5% CO2 atmosphere, in the absence or presence of serial dilutions of tested compounds. Cell viability was determined after 96 h at 37 °C by the 3-(4,5-dimethylthiazol-2-yl)-2,5-diphenyl-tetrazolium bromide (MTT) method.

The next data set relates to HIV-1 IIIB. The data set can be described thus: Anti-HIV-1 activity: protection of MT-4 cells from virus-induced cytopathogenicity (MTT). Type of data set: cell-based, Human Immunodeficiency Virus type-1. To be noted: 50% protection of MT-4 cells from HIV-1 induced cytopathogenicity, MTT, 4-day incubation, read-out: HIV-1IIIB EC50.
Excerpt: as §3
The activity of compounds against HIV-1 was based on inhibition of virus-induced cytopathogenicity in MT-4 cell acutely infected with a multiplicity of infection (m.o.i.) of 0.01. Briefly, 50 μL of RPMI containing 1 × 10^4 MT-4 cells were added to each well of flat-bottom microtiter trays, containing 50 μL of RPMI without or with serial dilutions of test compounds. Then, 20 μL of a HIV-1 suspension containing 100 CCID50 were added. After a 4-day incubation at 37 °C, cell viability was determined by the MTT method.
(In general: Protection from cytopathic effect is a common read-out in antiviral testing.)

A short description of data set [1]: Cytotoxicity against mock-infected MT-4 cells (MTT). It is filed as cell-based, human. To be noted: human, concentration reducing viability of mock-infected MT-4 cells by 50%. How it is done:
as §3, §4

Read-outs that look alike come from different tables or passages of the source. A value given as a limit tells only on which side of the number the result lay.

Consider `CC[C@@]1(O)C(=O)OCc2c1cc1n(c2=O)Cc2cc3ccccc3nc2-1` [Camptotecin, reference compound], for which the CC50 (in general, the concentration giving 50% cytotoxicity) in the data set on CRL7065 is 0.3 µM; in the data set on CCRF-CEM, 0.003 µM; in the data set on WIL-2NS, 0.005 µM; with CCRF-SB, 0.004 µM; in the data set with MT-4, 0.004 µM; with DU145, 0.08 µM. The compound also registered a CC50 in the data set with SK-MEL-28 of 0.07 µM.

As to `O=[N+]([O-])c1cc(NC(=S)Nc2ccccc2Cl)ccc1Cl` [Compound 1], the CC50 is 8.8 µM in the data set with MT-4 cells; 18 µM in the data set with CRL7065; 13 µM with CCRF-CEM; 14 µM in the data set on WIL-2NS; 14 µM in the data set with CCRF-SB; 8.8 µM with MT-4. In addition, the CC50 in the data set on DU145 is 7.6 µM; in the data set with SK-MEL-28, 8.7 µM. The EC50 (as a rule, the concentration that produces a half-maximal response) in the data set on HIV-1 IIIB is greater than 8.8 µM.

With `O=[N+]([O-])c1cc(NC(=S)Nc2cccc(Cl)c2)ccc1Cl` [Compound 2], the CC50 with MT-4 cells came to 7 µM. Also, the EC50 in the data set with HIV-1 IIIB was greater than 7 µM.

In turn, `O=[N+]([O-])c1cc(NC(=S)Nc2ccc(Cl)cc2)ccc1Cl` [Compound 3] displayed a CC50 in the data set on MT-4 cells of 7 µM. Further, the EC50 with HIV-1 IIIB is greater than 7 µM.

In the case of `O=[N+]([O-])c1cc(NC(=S)Nc2ccccc2Br)ccc1Cl` [Compound 4], the cytotoxic concentration (CC50) stood at 9.6 µM in the data set with MT-4 cells; 20 µM in the data set on CRL7065; 22 µM in the data set on CCRF-CEM; 30 µM with WIL-2NS; 22 µM with CCRF-SB; 9.6 µM with MT-4. In addition, the CC50 in the data set on DU145 worked out at 8 µM; with SK-MEL-28, 15 µM.

`O=[N+]([O-])c1cc(NC(=S)Nc2cccc(Br)c2)ccc1Cl` [Compound 5]: in the data set on MT-4 cells, the CC50 stood at 8 µM. In addition, the EC50 in the data set with HIV-1 IIIB is greater than 8 µM.

With `O=[N+]([O-])c1cc(NC(=S)Nc2ccc(Br)cc2)ccc1Cl` [Compound 6], the CC50 in the data set with MT-4 cells is 6.6 µM; with CRL7065 it was 30 µM; in the data set with CCRF-CEM, 6 µM; in the data set with WIL-2NS, 7 µM; with CCRF-SB, 8 µM; in the data set with MT-4, 6.6 µM. In addition, the CC50 with DU145 and in the data set with SK-MEL-28 was 6 µM in each case. Moreover, the concentration giving a half-maximal response (EC50) in the data set on HIV-1 IIIB is greater than 6.6 µM.

In the data set on MT-4 cells, `O=[N+]([O-])c1cc(NC(=S)Nc2ccccc2F)ccc1Cl` [Compound 7] showed a CC50 of 13 µM. Moreover, the EC50 in the data set on HIV-1 IIIB is greater than 13 µM.

Regarding `O=[N+]([O-])c1cc(NC(=S)Nc2cccc(F)c2)ccc1Cl` [Compound 8], the CC50 in the data set with MT-4 cells was determined as 9 µM. The EC50 in the data set on HIV-1 IIIB is greater than 9 µM.

`O=[N+]([O-])c1cc(NC(=S)Nc2ccc(F)cc2)ccc1Cl` [Compound 9]: the CC50 was 7 µM in the data set with MT-4 cells; 22 µM in the data set with CRL7065; 9.1 µM with CCRF-CEM; 11 µM in the data set on WIL-2NS; 9.4 µM in the data set with CCRF-SB; 7 µM with MT-4. For the same compound, the CC50 in the data set on DU145 is 8.4 µM; in the data set with SK-MEL-28, 20 µM. Moreover, in the data set on HIV-1 IIIB, the EC50 was greater than 7 µM.

With `O=[N+]([O-])c1cc(NC(=S)Nc2ccc(F)c(Cl)c2)ccc1Cl` [Compound 10], the CC50 with MT-4 cells worked out at 7.3 µM; in the data set with CRL7065 it was 16 µM; in the data set on CCRF-CEM, 5 µM; in the data set on WIL-2NS it was 7 µM; in the data set on CCRF-SB, 8.8 µM; in the data set with MT-4, 7.3 µM. Besides, the CC50 in the data set on DU145 amounted to 6.5 µM; with SK-MEL-28 it was 6.6 µM. The EC50 in the data set on HIV-1 IIIB is greater than 7.3 µM.

Regarding `O=[N+]([O-])c1cc(NC(=S)Nc2ccc(Cl)cc2Cl)ccc1Cl` [Compound 12], the CC50 in the data set with MT-4 cells was 8 µM. Moreover, the EC50 in the data set on HIV-1 IIIB was greater than 8 µM.

For `Cc1ccc(Cl)cc1NC(=S)Nc1ccc(Cl)c([N+](=O)[O-])c1` [Compound 14], the CC50 with MT-4 cells came out at 8.2 µM; in the data set on CRL7065 it was 18 µM; in the data set with CCRF-CEM it was 9.4 µM; with WIL-2NS it was 10 µM; in the data set on CCRF-SB, 9.8 µM; in the data set with MT-4, 8.2 µM. Also, the CC50 with DU145 worked out at 7.8 µM; in the data set with SK-MEL-28 it was 9 µM. Besides, in the data set with HIV-1 IIIB, the EC50 was greater than 8.2 µM.

Turning to `O=[N+]([O-])c1cc(NC(=S)Nc2cccc(C(F)(F)F)c2)ccc1Cl` [Compound 15], the CC50 in the data set with MT-4 cells amounted to 8 µM. In addition, the EC50 in the data set on HIV-1 IIIB was greater than 8 µM.

For `O=[N+]([O-])c1cc(NC(=S)Nc2ccc(C(F)(F)F)cc2)ccc1Cl` [Compound 16], in the data set with MT-4 cells, the CC50 came out at 7 µM. Further, the EC50 in the data set with HIV-1 IIIB is greater than 7 µM.

`O=[N+]([O-])c1cc(NC(=S)Nc2ccc(I)cc2)ccc1Cl` [Compound 17]: the CC50 came to 7.8 µM in the data set with MT-4 cells; 30 µM in the data set with CRL7065; 6 µM with CCRF-CEM; 7 µM in the data set on WIL-2NS; 8.3 µM in the data set with CCRF-SB; 7.8 µM in the data set with MT-4. The CC50 was determined as 11 µM with DU145 and 6 µM with SK-MEL-28. Further, the EC50 in the data set on HIV-1 IIIB is greater than 7.8 µM.

In the data set with MT-4 cells, `O=[N+]([O-])c1ccc(NC(=S)Nc2ccc(Cl)c([N+](=O)[O-])c2)cc1` [Compound 18] came in with a CC50 of 7 µM. The EC50 in the data set with HIV-1 IIIB is greater than 7 µM.

In the case of `N#Cc1ccc(NC(=S)Nc2ccc(Cl)c([N+](=O)[O-])c2)cc1` [Compound 19], the CC50 was 8.2 µM with MT-4 cells; 20 µM in the data set with CRL7065; 9.1 µM with CCRF-CEM; 10 µM in the data set on WIL-2NS; 9.2 µM in the data set with CCRF-SB; 8.2 µM with MT-4. Also, the CC50 with DU145 stood at 8 µM; with SK-MEL-28 it was 9 µM. The EC50 in the data set with HIV-1 IIIB was greater than 8.2 µM.

`CC(NC(=S)Nc1ccc(Cl)c([N+](=O)[O-])c1)c1ccccc1` (stereo not shown) [Compound 26]: the CC50 in the data set with MT-4 cells was found to be 16.7 µM. In the data set with HIV-1 IIIB, the EC50 is greater than 16.7 µM.

For `O=C1Nc2ccc(Cl)cc2[C@@](C#CC2CC2)(C(F)(F)F)O1` [Efavirenz, reference compound], half-maximal cytotoxicity in data set [1] (CC50 at 96 h) was put at 46 µM. The EC50 in the data set with HIV-1 IIIB (Human immunodeficiency virus 1, IIIB, MT4, 96 h) was 0.002 µM.
